# Source: patent publication US7994204B2, “Binding inhibitor of sphingosine-1-phosphate” (Taisho Pharmaceutical Co., Ltd, priority 2006, dated 2011)
# Target: T1, human Edg-1 (S1P1) (Homo sapiens, UniProt P21453)
# T1 construct: expressed in transfected cells; host or cells: HEK-293
# Experiment: S1P1 binding inhibition test (membrane, [33P]-S1P)
# Conditions: compound 10 μM; [33P]-S1P 0.1 nM; human Edg-1 (S1P1) HEK-293 membrane fraction; read-out: Binding test (membrane) % inhibition (10 μM)
# Description: The membrane fraction was obtained by treating the cells with a solubilizing buffer (1 mM Tris/HCl, pH 7.2) for 10 minutes on ice, centrifuging at 1000×g for 5 minutes to remove insoluble fractions, and then centrifuging at 40000×g for 30 minutes at 4° C. The resulting membrane fraction was dissolved in a binding buffer (20 mM Tris-HCl, pH 7.4, 100 mM NaCl, 15 mM NaF, 2 mM deoxypyridoxine, 4 mg/mL fatty acid-free BSA), and then [^33P]-S1P (manufactured by ARC, final concentration 0.1 nM) and a DMSO solution (final concentration of the compound 10^−5 M, final concentration of DMSO 0.1%) of the test compound were added. Thereafter, the mixture was stirred and then treated for one hour at 30° C. Using a harvester, the membrane fraction was harvested onto unifilter-96 GF/C filter (manufactured by Perkin Elmer), washing was carried out four times with the binding buffer, and the filter was dried. Twenty five μL Microscint 0 (manufactured by Perkin Elmer) was added, and radioactivity was measured using Top Count NXT (manufactured by Packard) to calculate the amount (A) of [^33P]-S1P bound to the membrane fraction at the time when the compound was added.
# The same procedure was carried out in the absence of the test compound, and the amount (B) of [^33P]-S1P bound was calculated. Further, the same procedure was carried out in the absence of the test compound by use of HEK-293 cells to which no Edg-1 (S1P1) gene was introduced, and the background amount (C) of [^33P]-S1P bound was calculated.
# Inhibition rate (%)=[1−(A−C)/(B−C)]×100.
# Moreover, the concentration required for a test compound to produce 50% inhibition of the binding caused in the absence of the test compound was also calculated (IC50). The above membrane system binding test was performed in the presence of a test compound at various concentrations to calculate the inhibition rate of Edg-1(S1P1) binding at each concentration according to the above equation, followed by calculating an IC50 value for each compound with data analysis software, Origin (Lightstone Corp., Japan).
# T1 sequence (P21453 whole entry): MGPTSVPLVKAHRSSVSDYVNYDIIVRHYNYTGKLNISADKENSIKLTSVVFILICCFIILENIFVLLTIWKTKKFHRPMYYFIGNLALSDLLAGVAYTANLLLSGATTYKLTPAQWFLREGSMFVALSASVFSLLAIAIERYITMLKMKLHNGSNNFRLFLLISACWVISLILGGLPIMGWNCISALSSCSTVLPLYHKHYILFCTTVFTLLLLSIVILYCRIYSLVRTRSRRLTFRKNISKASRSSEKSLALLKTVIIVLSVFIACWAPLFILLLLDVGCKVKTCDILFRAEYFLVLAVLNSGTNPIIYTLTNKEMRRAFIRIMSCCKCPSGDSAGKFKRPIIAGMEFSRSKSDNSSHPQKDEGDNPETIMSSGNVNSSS
row,inhibition at 10 µM [%],Compound
1,101,"CCn1c(C(C)NS(=O)(=O)c2ccc(Cl)c(Cl)c2)cnc1Oc1ccc2cc[nH]c2c1 (stereo not drawn) [Compound 250, 3,4-Dichloro-N-{1-[3-ethyl-2-(1H-indol-6-yloxy)-3H-imidazol-4-yl]-ethyl}-benzenesulfonamide]"
2,54.7,CCn1c(C(C)NS(=O)(=O)c2ccc(C(C)(C)C)cc2)cnc1Oc1ccc(C)cc1 (stereo not drawn) [Compound 6]
3,80,CCn1c(C(C)NS(=O)(=O)c2cc(Cl)ccc2Cl)cnc1Oc1ccc(C)cc1 (stereo not drawn) [Compound 17]
4,77.8,CCn1c(C(C)NS(=O)(=O)c2ccc(Br)cc2Br)cnc1Oc1ccc(C)cc1 (stereo not drawn) [Compound 113]
5,90.2,"CCn1c(C(C)N(C)S(=O)(=O)c2ccc(Cl)c(Cl)c2)cnc1Oc1ccc(Cl)cc1 (stereo not drawn) [Compound 248, 3,4-Dichloro-N-{1-[2-(4-chlorophenoxy)-3-ethyl-3H-imidazol-4-yl]-ethyl}-N-methyl-benzenesulfonamide]"
6,101,"CCn1c(C(C)NS(=O)(=O)c2ccc(Cl)c(Cl)c2)cnc1Oc1ccc(C)cc1 (stereo not drawn) [Compound 74, 3,4-Dichloro-N-[1-(3-ethyl-2(4-methylphenoxy)-3H-imidazol-4-yl)-ethyl]-benzenesulfonamide]"
7,84.6,CCn1c(C(C)NS(=O)(=O)c2cc(F)c(Br)cc2F)cnc1Oc1ccc(C)cc1 (stereo not drawn) [Compound 67]
8,78.6,CCn1c(C(C)NS(=O)(=O)c2ccc(F)c(F)c2F)cnc1Oc1ccc(C)cc1 (stereo not drawn) [Compound 90]
9,86.4,CCn1c(C(C)NS(=O)(=O)c2ccc(F)cc2C)cnc1Oc1ccc(C)cc1 (stereo not drawn) [Compound 127]
10,80.1,CCn1c(C(C)NS(=O)(=O)c2ccc(Br)cc2F)cnc1Oc1ccc(C)cc1 (stereo not drawn) [Compound 95]
11,68.5,CCn1c(C(C)NS(=O)(=O)c2cccc3ccccc23)cnc1Oc1ccc(C)cc1 (stereo not drawn) [Compound 27]
12,74.4,CCn1c(C(C)NS(=O)(=O)c2cc(F)cc(Cl)c2C)cnc1Oc1ccc(C)cc1 (stereo not drawn) [Compound 86]
13,79.8,CCn1c(C(C)NS(=O)(=O)c2cc(Cl)ccc2OC)cnc1Oc1ccc(C)cc1 (stereo not drawn) [Compound 107]
14,72.8,CCn1c(C(C)NS(=O)(=O)c2c(Cl)cccc2Cl)cnc1Oc1ccc(C)cc1 (stereo not drawn) [Compound 18]
15,62,CCn1c(C(C)NS(=O)(=O)c2cccc3cnccc23)cnc1Oc1ccc(C)cc1 (stereo not drawn) [Compound 169]
16,86.5,CCn1c(C(C)NS(=O)(=O)c2ccc(F)c(F)c2)cnc1Oc1ccc(C)cc1 (stereo not drawn) [Compound 94]
17,95.3,"CCn1c(C(C)NS(=O)(=O)c2ccc(Cl)c(Cl)c2)cnc1Oc1cccc(N2CCN(C)CC2)c1 (stereo not drawn) [Compound 184, 3,4-Dichloro-N-(1-{3-ethyl-2-[3-(4-methylpiperazin-1-yl)-phenoxy]-3H-imidazol-4-yl}-ethyl)-benzenesulfonamide]"
18,91.1,CCn1c(C(C)NS(=O)(=O)c2cc(F)cc(F)c2)cnc1Oc1ccc(C)cc1 (stereo not drawn) [Compound 119]
19,68.6,CCn1c(C(C)NS(=O)(=O)c2ccc(Br)cc2OC(F)(F)F)cnc1Oc1ccc(C)cc1 (stereo not drawn) [Compound 10]
20,62.5,CCn1c(C(C)NS(=O)(=O)c2c(F)cc(F)cc2Br)cnc1Oc1ccc(C)cc1 (stereo not drawn) [Compound 118]
21,92.1,CCn1c(C(C)NS(=O)(=O)c2ccc(F)cc2)cnc1Oc1ccc(C)cc1 (stereo not drawn) [Compound 22]
22,97.2,"CCn1c(C(C)NS(=O)(=O)c2ccc(Cl)c(Cl)c2)cnc1Oc1ccc(Cl)cc1 (stereo not drawn) [Compound 189, 3,4-Dichloro-N-{1-[3-ethyl-2-(4-chlorophenoxy)-3H-imidazol-4-yl]-ethyl}-benzenesulfonamide]"
23,87.3,CCn1c(C(C)NS(=O)(=O)c2ccc(OC)c(OC)c2)cnc1Oc1ccc(C)cc1 (stereo not drawn) [Compound 19]
24,82.3,CCn1c(C(C)NS(=O)(=O)c2cccc(C)c2)cnc1Oc1ccc(C)cc1 (stereo not drawn) [Compound 41]

row,inhibition at 10 µM [%],Compound
1,64.5,CCn1c(C(C)NS(=O)(=O)c2c(C)cccc2Cl)cnc1Oc1ccc(C)cc1 (stereo not drawn) [Compound 60]
2,68.1,CCn1c(C(C)NS(=O)(=O)c2ccc(Cl)c3nonc23)cnc1Oc1ccc(C)cc1 (stereo not drawn) [Compound 12]
3,62,CCn1c(C(C)NS(=O)(=O)c2ccc(S(C)(=O)=O)cc2)cnc1Oc1ccc(C)cc1 (stereo not drawn) [Compound 25]
4,103,CCn1c(C(C)NS(=O)(=O)c2ccc(Cl)cc2)cnc1Oc1ccc(C)cc1 (stereo not drawn) [Compound 11]
5,75.8,CCn1c(C(C)NS(=O)(=O)c2c(F)c(F)c(F)c(F)c2F)cnc1Oc1ccc(C)cc1 (stereo not drawn) [Compound 30]
6,93.5,CCn1c(C(C)NS(=O)(=O)c2ccc(C(F)(F)F)cc2)cnc1Oc1ccc(C)cc1 (stereo not drawn) [Compound 44]
7,82.6,"CCn1c(C(C)NS(=O)(=O)c2ccc(Cl)c(Cl)c2)cnc1Sc1ccc(C)cc1 (stereo not drawn) [Compound 241, 3,4-Dichloro-N-[1-(3-ethyl-2-p-tolylsulfanyl-3H-imidazol-4-yl)-ethyl]-benzenesulfonamide]"
8,98.5,CCn1c(C(C)NS(=O)(=O)c2cccc(C(F)(F)F)c2)cnc1Oc1ccc(C)cc1 (stereo not drawn) [Compound 37]
9,58.8,CCn1c(C(C)NS(=O)(=O)c2ccc(-c3csnn3)s2)cnc1Oc1ccc(C)cc1 (stereo not drawn) [Compound 46]
10,58.8,CCn1c(C(C)NS(=O)(=O)c2cc(C)oc2C(F)(F)F)cnc1Oc1ccc(C)cc1 (stereo not drawn) [Compound 143]
11,90.1,CCn1c(C(C)NS(=O)(=O)c2ccc(Cl)cc2Cl)cnc1Oc1ccc(C)cc1 (stereo not drawn) [Compound 79]
12,99.3,CCn1c(C(C)NS(=O)(=O)c2ccc(C)c(F)c2)cnc1Oc1ccc(C)cc1 (stereo not drawn) [Compound 126]
13,103,CCn1c(C(C)NS(=O)(=O)c2ccc(Cl)c(Cl)c2Cl)cnc1Oc1ccc(C)cc1 (stereo not drawn) [Compound 57]
14,66.4,CCn1c(C(C)NS(=O)(=O)c2c(C)c(C)cc(C)c2C)cnc1Oc1ccc(C)cc1 (stereo not drawn) [Compound 58]
15,82.9,CCn1c(C(C)NS(=O)(=O)c2cc(Br)ccc2OC)cnc1Oc1ccc(C)cc1 (stereo not drawn) [Compound 69]
16,90.1,CCn1c(C(C)NS(=O)(=O)c2ccc(Br)c(Br)c2)cnc1Oc1ccc(C)cc1 (stereo not drawn) [Compound 72]
17,85.6,CCn1c(C(C)NS(=O)(=O)c2cc(C(F)(F)F)cc(C(F)(F)F)c2)cnc1Oc1ccc(C)cc1 (stereo not drawn) [Compound 62]
18,61.2,CCn1c(C(C)NS(=O)(=O)c2ccc(F)cc2F)cnc1Oc1ccc(C)cc1 (stereo not drawn) [Compound 80]
19,80.4,CCn1c(C(C)NS(=O)(=O)c2cc(F)c(Cl)cc2F)cnc1Oc1ccc(C)cc1 (stereo not drawn) [Compound 96]
20,57.3,CCCc1ccc(S(=O)(=O)NC(C)c2cnc(Oc3ccc(C)cc3)n2CC)cc1 (stereo not drawn) [Compound 56]
21,102,CCn1c(C(C)NS(=O)(=O)c2ccc(Br)c(F)c2)cnc1Oc1ccc(C)cc1 (stereo not drawn) [Compound 129]
22,100,"CCC(NS(=O)(=O)c1ccc(Cl)c(Cl)c1)c1cnc(Oc2ccc(F)cc2)n1CC (stereo not drawn) [Compound 191, 3,4-Dichloro-N-{1-[3-ethyl-2-(4-fluorophenoxy)-3H-imidazol-4-yl]-propyl}-benzenesulfonamide]"
23,101,CCn1c(C(C)NS(=O)(=O)c2cccc(Cl)c2Cl)cnc1Oc1ccc(C)cc1 (stereo not drawn) [Compound 59]
24,57.8,CCn1c(C(C)NS(=O)(=O)c2cccc3nsnc23)cnc1Oc1ccc(C)cc1 (stereo not drawn) [Compound 146]

# Same assay, conditions: membrane system binding test, various concentrations
row,IC50 [nM],Compound
1,20.5,"CCn1c(C(C)NS(=O)(=O)c2ccc(Cl)c(Cl)c2)cnc1Oc1ccc2cc[nH]c2c1 (stereo not drawn) [Compound 250, 3,4-Dichloro-N-{1-[3-ethyl-2-(1H-indol-6-yloxy)-3H-imidazol-4-yl]-ethyl}-benzenesulfonamide]"
2,14.3,"CCn1c(C(C)NS(=O)(=O)c2ccc(Cl)c(Cl)c2)cnc1Oc1cccc(N2CCN(C)CC2)c1 (stereo not drawn) [Compound 184, 3,4-Dichloro-N-(1-{3-ethyl-2-[3-(4-methylpiperazin-1-yl)-phenoxy]-3H-imidazol-4-yl}-ethyl)-benzenesulfonamide]"
3,≤ 70,"CCn1c(C(C)NS(=O)(=O)c2ccc(Cl)c(Cl)c2)cnc1Oc1ccc(Cl)cc1 (stereo not drawn) [Compound 189, 3,4-Dichloro-N-{1-[3-ethyl-2-(4-chlorophenoxy)-3H-imidazol-4-yl]-ethyl}-benzenesulfonamide]"
